The test system of assay [1] is MART-1-specific TCR transduced T cells cultured with MART-1-epitope transduced BxPC3 cells. In words: T cell activation markers in co-culture of MART-1-specific TCR-T cells with MART-1+ BxPC3 cells. The assay is classed as cell-based, human. The following applies: single agent: 5 μM AR-C, 10 μg/ml atezolizumab or 10 μg/ml durvalumab, 6-24 hours, CD8+ MART-1-specific TCR+ population (FIG. 10). The source says: FIG. 10. […] Untreated cells served as the control.
MART-1 specific T cells were generated as described (Mezzadra et al., Nature 549, 106-110 (2017); Jorritsma et al., Blood 110 (10): 3564-3572. (2007)). To generate CD33-specific chimeric antigen receptor (CAR) T cells, a CD33Hul95-CD28Z CAR (described in WO 2019/178382) cassette was cloned into a retroviral vector, and the resulting virus was used to transduce T cells as described (Mezzadra et al., Nature 549, 106-110 (2017); Jorritsma et al., Blood 110 (10): 3564-3572. (2007)).
MART1-specific CD8+ T cells and MART1 epitope-expressing cancer cells were mixed at a ratio of 1:16 to 1:4. […] T cell activation was assessed by surface staining with anti-CD137-BV421 (4-1BB, Biolegend), anti-CD69-APC/Fire™ 750 (FN50, Biolegend), anti-CD25-AF700 (BC96, Biolegend) antibodies and intracellular staining with anti-IL-2-PE/Cy7 (MQ1-17H12, Biolegend), anti-IFN-7-BV421 (4S.B3, Biolegend), anti-TNF-α-BV785 (MAb11, Biolegend) antibodies, followed by flow cytometry analysis. For intracellular staining, brefeldin A (Biolegend) was added to the cell culture medium 4 h before cells were harvested. The viability of cancer cells that grow in suspension including THP-1 cells was assessed by flow cytometry-based absolute cell counting using AccuCount beads (Spherotech). For adherent cancer cells including BxPC3 and MCF7, the cell viability was quantified using CellTiter-Blue Cell Viability Assay (Promega).

For assay [2], the system named is CEA-specific CAR transduced T cells co-cultured with SW480 cells. Briefly: T cell activation in co-culture of CEA-specific CAR-T cells with SW480 cells. The assay is classed as cell-based, human. The following applies: 10 μM AR-C, 24 hours, CD3+CD8+ or CD3+CD4+ population (FIG. 19). Here is the method: FIG. 19. Effects of P2RY2 agonist and P2RY2 antagonist on T cell activity in T cell-cancer cell co-cultures. T cells transduced with a CEA-specific CAR (CAR-T) were co-cultured with genetically edited SW480 cells for 24 hours in the absence or presence of 40 μM ATP, 200 μM ATPγS, 10 μM Diquafosol, 5 μM Denufosol and 10 μM AR-C 118925XX (AR-C). Control cells: SW480 cells transduced with non-targeting sgRNA and Cas9 (gNT); P2RY2 deficient cells: SW480 cells transduced with P2RY2-targeting sgRNA and Cas9 (gP2RY2-3, gP2RY2-4); B7-H3 (CD276) deficient cells: SW480 cells transduced with B7-H3-targeting sgRNA and Cas9 (gCD276-1); P2RY2 and B7-H3 double deficient cells: SW480 cells transduced with P2RY2-targeting sgRNA, B7-H3-targeting sgRNA, and Cas9 (gCD276-1 gP2RY2-3 DKO, gCD276-1 gP2RY2-4 DKO); P2RY2 overexpression cells: SW480 cells transduced with the open reading frame of P2RY2 (P2RY2-OE); B7-H3 overexpression cells: SW480 cells transduced with the open reading frame of CD276 (CD276-OE). Transduced cancer cells were selected by antibiotics according to antibiotic resistance genes carried by the lentiviral constructs. Flow cytometry analysis of expression of CD25 and CD69 and production of IFNγ within the CD3+CD8+ or CD3+CD4+ cell population is shown (values indicate the percentages of positive cells).
MART-1 specific T cells were generated as described (Mezzadra et al., Nature 549, 106-110 (2017); Jorritsma et al., Blood 110 (10): 3564-3572. (2007)). To generate CD33-specific chimeric antigen receptor (CAR) T cells and CEA-specific CAR-T cells, a CD33Hul95-CD28Z CAR (described in WO 2019/178382) cassette and MFE-23 (described in US20050147614A1)-CD28Z CAR were separately cloned into retroviral vectors, and the resulting virus was used to transduce T cells as described (Mezzadra et al., Nature 549, 106-110 (2017); Jorritsma et al., Blood 110 (10): 3564-3572. (2007)).
The open reading frames of transcripts of P2RY2 (ENST00000393597.7) or CD276 (ENST00000318443.10), were ordered as a codon optimized gBlock Gene Fragment (Integrated DNA Technologies or Twist Bioscience) and cloned into a lentiviral vector containing a blasticidin selection cassette. Constructs were verified by Sanger sequencing.
MART1-specific CD8+ T cells and MART1 epitope-expressing cancer cells were mixed at a ratio of 1:16 to 1:1. CD33 CAR-T cells and CD33 expressing THP-1 cells were mixed at a ratio of 1:16 to 1:4. CEA CAR-T cells and CEA expressing SW480 cells were mixed at a ratio of 1:1. Next, cells were centrifugated at 1,600 g for 3 min and incubated at 37° C. and 5% CO2 for 12-72 hours. T cell activation was assessed by surface staining with anti-CD137-BV421 (4-1BB, Biolegend), anti-CD137-PE/Cy7 (4-1BB, Biolegend), anti-CD69-APC/Fire™ 750 (FN50, Biolegend), anti-CD25-AF700 (BC96, Biolegend), anti-CD25-APC (BC96, Biolegend) antibodies and intracellular staining with anti-IL-2-PE/Cy7 (MQ1-17H12, Biolegend), anti-IFN-7-BV421 (4S.B3, Biolegend), anti-TNF-α-BV785 (MAb11, Biolegend), anti-TNF-α-APC (MAb11, Biolegend) antibodies, followed by flow cytometry analysis. For intracellular staining, brefeldin A (Biolegend) was added to the cell culture medium 4 h before cells were harvested. The viability of cancer cells that grow in suspension including THP-1 cells was assessed by flow cytometry-based absolute cell counting using AccuCount beads (Spherotech). For adherent cancer cells including BxPC3, MIA PaCa-2, MDA-MB-231 and MCF7, the cell viability was quantified using CellTiter-Blue Cell Viability Assay (Promega).

Regarding `Cc1ccc2c(c1)C=Cc1cc(C)ccc1C2c1cn(Cc2ccc(C(=O)Nc3nn[nH]n3)o2)c(=O)[nH]c1=S` [AR-C 118925XX], in assay [1], the “expression of CD25 on T cells” value was “elevated”, the “expression of CD69 on T cells” value was “elevated” and the “expression of CD137 on T cells” value is reported as “elevated”. In addition, in assay [2], the “expression of T cell activation marker CD25” value is “increased”, the “expression of T cell activation marker CD69” value is on record as “increased” and the “expression of T cell activation marker IFN-7” value is “increased”.
